In ChEMBL document CHEMBL1201862, “PubChem BioAssay data set” (2004):
“And” between values parts separate entries of the source, which are not always exact repeats. Identical values can stand only once.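 Five concentrations, 48 hours, 96-well plates. GI50 is the concentration that inhibits growth by half.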 The source made the active and inactive calls. Cut-off read from the data, not from the text of the source: active = GI50 up to about 1.1 µM and inactive = higher.

Tests used:
Assay in all cases: inhibition of tumour cell growth, NCI panel, 48 h
A549 = tested on: A549
COLO 205 = tested on: COLO 205
HCT-15 = tested on: HCT-15
HOP-92 = tested on: HOP-92
HT-29 = tested on: HT-29
Hs-578T = tested on: Hs-578T
IGROV-1 = tested on: IGROV-1
KM12 = tested on: KM12
M14 = tested on: M14
MCF7 = tested on: MCF7
MDA-N = tested on: MDA-N
MOLT-4 = tested on: MOLT-4
OVCAR-3 = tested on: OVCAR-3
OVCAR-4 = tested on: OVCAR-4
PC-3 = tested on: PC-3
RXF 393 = tested on: RXF 393
SK-MEL-5 = tested on: SK-MEL-5
SNB-19 = tested on: SNB-19
HL-60 = tested on: HL-60
T47D = tested on: T47D

| SMILES | GI50 (A549) | GI50 (COLO 205) | GI50 (HCT-15) | GI50 (HOP-92) | GI50 (HT-29) | GI50 (Hs-578T) | GI50 (IGROV-1) | GI50 (KM12) | GI50 (M14) | GI50 (MCF7) | GI50 (MDA-N) | GI50 (MOLT-4) | GI50 (OVCAR-3) | GI50 (OVCAR-4) | GI50 (PC-3) | GI50 (RXF 393) | GI50 (SK-MEL-5) | GI50 (SNB-19) | GI50 (HL-60) | GI50 (T47D) |
| --- | --- | --- | --- | --- | --- | --- | --- | --- | --- | --- | --- | --- | --- | --- | --- | --- | --- | --- | --- | --- |
| COc1ccc(C/C=C(\C)CCO)cc1 | > 100 µM (inactive) | > 100 µM (inactive) | > 100 µM | > 100 µM (inactive) | > 100 µM (inactive) | > 100 µM (inactive) | > 100 µM (inactive) | > 100 µM (inactive) | > 100 µM (inactive) | > 100 µM (inactive) | > 100 µM (inactive) | > 100 µM (inactive) | > 100 µM (inactive) | > 100 µM (inactive) | > 100 µM (inactive) | > 100 µM (inactive) | > 100 µM (inactive) | > 100 µM (inactive) |  |  |
| O=C(CC(=O)N1N=C(N(c2ccccc2)c2ccccc2)CC1c1ccccc1)Nc1cccc(Cl)c1 (stereo unspecified) | > 100 µM (inactive) | > 100 µM (inactive) | > 100 µM | > 100 µM (inactive) | > 100 µM (inactive) | > 100 µM (inactive) | > 100 µM (inactive) | > 100 µM (inactive) | > 100 µM (inactive) | > 100 µM (inactive) |  | > 100 µM (inactive) | > 100 µM (inactive) | > 100 µM (inactive) | > 100 µM (inactive) | > 100 µM (inactive) | > 100 µM (inactive) | > 100 µM (inactive) | > 100 µM (inactive) | > 100 µM (inactive) |
| CC(=O)OC(/C=C/c1ccccc1)P1(=O)N(CC(C)(C)C)[C@@H]2CCCC[C@H]2N1CC(C)(C)C (stereo partly specified) | 5.05 µM (inactive) and 4.55 µM (inactive) | 3.69 µM (inactive) and 3.6 µM (inactive) | 6.75 µM and 4.97 µM | 12 µM (inactive) | 4.25 µM (inactive) and 3.89 µM (inactive) | 6.92 µM (inactive) and 8.67 µM (inactive) | 5.11 µM (inactive) and 6.78 µM (inactive) | 6.3 µM (inactive) and 6.65 µM (inactive) | 5.9 µM (inactive) and 5.24 µM (inactive) | 4.79 µM (inactive) and 4.61 µM (inactive) | 11 µM (inactive) and 7.73 µM (inactive) | 3.63 µM (inactive) and 3.83 µM (inactive) |  | 5.35 µM (inactive) and 5.22 µM (inactive) | 3.44 µM (inactive) and 3.03 µM (inactive) | 3.24 µM (inactive) and 6.08 µM (inactive) | 5.26 µM (inactive) and 6.3 µM (inactive) | 10.5 µM (inactive) and 8.15 µM (inactive) | 5.37 µM (inactive) and 5.71 µM (inactive) |  |
| COc1cc2c3c(c1OC)C(=O)C(=O)C1=C3N(CCC1)CC2 | 34.8 µM (inactive) | 10.4 µM (inactive) | 27.9 µM | 19.4 µM (inactive) | 24.3 µM (inactive) | 2.72 µM (inactive) | 28.7 µM (inactive) | 17 µM (inactive) | 26.4 µM (inactive) | 14.9 µM (inactive) |  | 18.9 µM (inactive) | 23.6 µM (inactive) | 24.2 µM (inactive) | 31.5 µM (inactive) | 26.6 µM (inactive) | 33 µM (inactive) | 63.4 µM (inactive) | 19.1 µM (inactive) | 23.2 µM (inactive) |
| COc1ccc(CCCCl)c(C2=NCCc3ccccc32)c1 | 44.2 µM (inactive) | 17.3 µM (inactive) | > 100 µM | 71.1 µM (inactive) | 19.2 µM (inactive) | 20.6 µM (inactive) | 24.8 µM (inactive) | 27.4 µM (inactive) | 71.3 µM (inactive) | 38.2 µM (inactive) |  | 32.4 µM (inactive) | 56.5 µM (inactive) | 45.1 µM (inactive) | 19.5 µM (inactive) | 56.9 µM (inactive) | 9.59 µM (inactive) | 14.8 µM (inactive) | 10.4 µM (inactive) | 32.9 µM (inactive) |
| CC1=CC(=O)/C(=C/NC(N)=S)C(=O)O1 | > 100 µM (inactive) | > 100 µM (inactive) | 98.4 µM | 15.3 µM (inactive) |  | > 100 µM (inactive) | > 100 µM (inactive) | > 100 µM (inactive) | > 100 µM (inactive) | > 100 µM (inactive) | > 100 µM (inactive) | 53.7 µM (inactive) | > 100 µM (inactive) | > 100 µM (inactive) | > 100 µM (inactive) | 1.05 µM (active) | 92 µM (inactive) | 97.1 µM (inactive) | 1.72 µM (inactive) |  |
| COC(=O)C1C(O)C(C)C(=O)C(C)/C=C\C=C(C)C(=O)Nc2c(C)c(OC(C)=O)c3c(c2O)C(=O)C(C)=C2OCOC(=C23)C(C)=CC(C)(O)C(O)C(C)C1O (stereo unspecified) | 20.2 µM (inactive) | 25.1 µM (inactive) | 21.6 µM | 50.5 µM (inactive) | 29.9 µM (inactive) | 37.4 µM (inactive) | 21.7 µM (inactive) | 36.6 µM (inactive) | 25.4 µM (inactive) | 27.4 µM (inactive) |  | 29.4 µM (inactive) | 42.4 µM (inactive) |  | 25.1 µM (inactive) | 31.1 µM (inactive) | 14.5 µM (inactive) | > 100 µM (inactive) | 18.6 µM (inactive) | 33.3 µM (inactive) |
| O=C1/C(=C/c2ccc(O)cc2)CCC1CNc1ccccc1 (stereo unspecified) | 17.8 µM (inactive) | 11.1 µM (inactive) | 5.05 µM | 14.4 µM (inactive) | 11.5 µM (inactive) | 21.5 µM (inactive) | 11.3 µM (inactive) | 6.65 µM (inactive) | 12.2 µM (inactive) | 2.25 µM (inactive) |  | 1.85 µM (inactive) | 14.6 µM (inactive) | 19.1 µM (inactive) | 11.2 µM (inactive) | 20.3 µM (inactive) | 16.8 µM (inactive) | 16.3 µM (inactive) | 1.96 µM (inactive) | 10.3 µM (inactive) |
| CCCCC(=O)OCC(=O)[C@]1(O)Cc2c(O)c3c(c(O)c2[C@@H](OC2CC(NC(=O)C(F)(F)F)C(O)C(C)O2)C1)C(=O)c1c(OC)cccc1C3=O (stereo partly specified) | 0.194 µM (active) | 1.11 µM (active) | 1.39 µM | 0.376 µM (active) | 0.74 µM (active) | 1.73 µM (inactive) | 0.794 µM (active) | 0.787 µM (active) | 0.832 µM (active) |  | 1.15 µM (inactive) | 0.0228 µM (active) | 2.96 µM (inactive) | 2.08 µM (inactive) | 1.14 µM (inactive) | 0.82 µM (active) | 0.327 µM (active) | 0.348 µM (active) | 0.126 µM (active) | 0.54 µM (active) |
| Nc1nc(O)c(Br)c(-c2cccc([N+](=O)[O-])c2)n1 | > 46.9 µM (inactive) | > 100 µM (inactive) | > 100 µM | > 76 µM (inactive) | > 100 µM (inactive) | > 100 µM (inactive) | > 83.8 µM (inactive) | > 100 µM (inactive) | > 38.8 µM (inactive) | > 49.2 µM (inactive) |  | > 77.4 µM (inactive) | > 100 µM (inactive) | > 100 µM (inactive) | > 100 µM (inactive) | > 100 µM (inactive) | > 59.6 µM (inactive) | 25.9 µM (inactive) | > 71.1 µM (inactive) | 91 µM (inactive) |
